Experimental findings from patent publication EP2970215B1, “PYRROLIDINE DERIVATIVES, PHARMACEUTICAL COMPOSITIONS CONTAINING THEM, AND THEIR USE IN THERAPY” (AbbVie Deutschland GmbH & Co. KG, priority 2013, dated 2014) are described below.

By Ki is commonly meant a dissociation constant, usually derived from enzyme kinetics or from competition with a known ligand.

The target in one experiment is T1, human GlyT1c transporter (Homo sapiens, UniProt P48067).
T1 construct: expressed in transfected cells; host or cells: CHO cells (recombinant; line hGlyT1c_5_CHO is named for the uptake assay)
T1 sequence (P48067 1-706): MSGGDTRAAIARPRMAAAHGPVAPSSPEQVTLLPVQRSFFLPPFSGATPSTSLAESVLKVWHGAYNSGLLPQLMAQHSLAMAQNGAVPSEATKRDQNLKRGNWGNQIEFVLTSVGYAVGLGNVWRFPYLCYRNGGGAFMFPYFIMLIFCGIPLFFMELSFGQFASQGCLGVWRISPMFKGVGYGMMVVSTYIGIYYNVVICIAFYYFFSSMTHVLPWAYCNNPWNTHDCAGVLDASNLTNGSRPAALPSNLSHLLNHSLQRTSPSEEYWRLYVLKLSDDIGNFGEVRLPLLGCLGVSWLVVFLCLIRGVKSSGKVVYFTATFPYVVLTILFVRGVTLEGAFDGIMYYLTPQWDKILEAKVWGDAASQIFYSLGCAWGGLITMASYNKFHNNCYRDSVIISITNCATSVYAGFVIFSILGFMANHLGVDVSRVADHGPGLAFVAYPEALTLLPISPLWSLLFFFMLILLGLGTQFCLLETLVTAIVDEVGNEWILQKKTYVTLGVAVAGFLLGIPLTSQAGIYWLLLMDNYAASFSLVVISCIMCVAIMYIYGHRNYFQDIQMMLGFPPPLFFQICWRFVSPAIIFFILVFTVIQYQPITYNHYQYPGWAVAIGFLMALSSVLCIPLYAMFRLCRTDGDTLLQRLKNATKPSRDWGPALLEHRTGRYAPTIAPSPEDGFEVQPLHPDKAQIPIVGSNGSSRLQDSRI
The experiment is described as follows: Radioligand binding assay using recombinant CHO cell membranes expressing human GlyT1. As to conditions: radioligand binding to human GlyT1c transporter-expressing membranes. An excerpt: 2. Radioligand binding assays using recombinant CHO cell membranes expressing human GlyT1: […]
Consider `Cn1cnc(S(=O)(=O)N2C[C@@H](Nc3cc(Cl)cc(C#N)c3)[C@H](c3ccccc3)C2)c1` (relative stereo) [Example 80, 3-chloro-5-({trans-1-[(1-methyl-1H-imidazol-4-yl)sulfonyl]-4-phenylpyrrolidin-3-yl}amino)benzonitrile], for which the Ki is ≤ 1000 nM. The same measure, in the same setting: next, `CCCS(=O)(=O)N1C[C@@H](NC(=O)c2ccc(C(F)(F)F)cc2)[C@H](c2ccccc2)C1` (relative stereo) [Example 125, N-[trans-4-phenyl-1-(propylsulfonyl)pyrrolidin-3-yl]-4-(trifluoromethyl)benzamide]: > 10000 nM; `CCCCCN[C@@H]1CN(S(=O)(=O)c2cn(C)cn2)C[C@H]1c1ncccc1F` (relative stereo) [Example 765, Trans-4-(3-fluoropyridin-2-yl)-1-[(1-methyl-1H-imidazol-4-yl)sulfonyl]-N-pentylpyrrolidin-3-amine]: ≤ 1000 nM; `Cn1cnc(S(=O)(=O)N2C[C@H](Nc3cc(OC4CCCC4)ncn3)[C@@H](c3ccc(F)cc3)C2)c1` [Example 720, 6-(cyclopentyloxy)-N-{(3R,4S)-4-(4-fluorophenyl)-1-[(1-methyl-1H-imidazol-4-yl)sulfonyl]pyrrolidin-3-yl}pyrimidin-4-amine]: ≤ 100 nM. Same read-out and setting: next, `Cn1cnc(S(=O)(=O)N2C[C@@H](C(=O)Nc3ccc(Cl)c(OC(F)(F)F)c3)[C@H](c3ccc(F)cc3)C2)c1` (relative stereo) [Example 371, Trans-N-[4-chloro-3-(trifluoromethoxy)phenyl]-4-(4-fluorophenyl)-1-[(1-methyl-1H-imidazol-4-yl)sulfonyl]pyrrolidine-3-carboxamide]: ≤ 1000 nM; `Cn1cnc(S(=O)(=O)N2C[C@H](NCC3CC3c3ccccc3)[C@@H](c3ccccc3)C2)c1` (stereo partly drawn) [Example 564, (3R,4S)-1-[(1-methyl-1H-imidazol-4-yl)sulfonyl]-4-phenyl-N-[(2-phenylcyclopropyl)methyl]pyrrolidin-3-amine]: ≤ 1000 nM; `Cn1cnc(S(=O)(=O)N2C[C@@H](Nc3ccccc3)[C@H](c3cccc(F)c3)C2)c1` (relative stereo) [Example 185, trans-4-(3-fluorophenyl)-1-[(1-methyl-1H-imidazol-4-yl)sulfonyl]-N-phenylpyrrolidin-3-amine]: ≤ 10000 nM. Regarding `Cn1cnc(S(=O)(=O)N2C[C@@H](COc3ccnc(C(F)(F)F)c3)[C@H](c3ccc(F)cc3)C2)c1` (relative stereo) [Example 366, 4-({Trans-4-(4-fluorophenyl)-1-[(1-methyl-1H-imidazol-4-yl)sulfonyl]pyrrolidin-3-yl}methoxy)-2-(trifluoromethyl)pyridine], the Ki is ≤ 100 nM. Still for that read-out and setting: as for `Cn1cnc(S(=O)(=O)N2C[C@H](Nc3cccc(F)c3)[C@@H](c3ccc(F)cc3)C2)c1` [Example 353, (3R,4S)-N-(3-fluorophenyl)-4-(4-fluorophenyl)-1-[(1-methyl-1H-imidazol-4-yl)sulfonyl]pyrrolidin-3-amine], the figure is ≤ 100 nM; as for `COCCN[C@H]1CN(S(=O)(=O)c2cn(C)cn2)C[C@@H]1c1ccccc1` [Example 600, (3R,4S)-N-(2-methoxyethyl)-1-[(1-methyl-1H-imidazol-4-yl)sulfonyl]-4-phenylpyrrolidin-3-amine], ≤ 10000 nM. For `Cn1cnc(S(=O)(=O)N2C[C@@H](NCc3cccc(C(F)(F)F)c3)[C@H](c3ccc(F)cc3)C2)c1` (relative stereo) [Example 266, trans-4-(4-fluorophenyl)-1-[(1-methyl-1H-imidazol-4-yl)sulfonyl]-N-[3-(trifluoromethyl)benzyl]pyrrolidin-3-amine], the Ki is ≤ 1000 nM. As for `CC(C)CN[C@H]1CN(S(=O)(=O)c2cn(C)cn2)C[C@@H]1c1ccccc1` [Example 439, (3R,4S)-1-[(1-methyl-1H-imidazol-4-yl)sulfonyl]-N-(2-methylpropyl)-4-phenylpyrrolidin-3-amine], the Ki was ≤ 1000 nM. The same measure, in the same setting: next, `Cn1cnc(S(=O)(=O)N2C[C@@H](Nc3ccccc3Cl)[C@H](c3ccc(F)cc3)C2)c1` (relative stereo) [Example 93, trans-N-(2-chlorophenyl)-4-(4-fluorophenyl)-1-[(1-methyl-1H-imidazol-4-yl)sulfonyl]pyrrolidin-3-amine]: ≤ 1000 nM; `Cc1oncc1S(=O)(=O)N1CC(Nc2ccc(F)c(F)c2)C(c2ccccc2)C1` (stereo not drawn) [Example 487, N-(3,4-difluorophenyl)-1-[(5-methyl-1,2-oxazol-4-yl)sulfonyl]-4-phenylpyrrolidin-3-amine]: ≤ 10000 nM; `CCCn1cc([C@H]2CN(S(=O)(=O)c3cn(C)cn3)C[C@@H]2c2ccc(F)cc2)nn1` [Example 640, 4-{(3R,4S)-4-(4-fluorophenyl)-1-[(1-methyl-1H-imidazol-4-yl)sulfonyl]pyrrolidin-3-yl}-1-propyl-1H-1,2,3-triazole]: ≤ 1000 nM.

As to `Cc1ccc(CN[C@H]2CN(S(=O)(=O)c3cn(C)cn3)C[C@@H]2c2ccccc2)nc1` [Example 536, (3R,4S)-1-[(1-methyl-1H-imidazol-4-yl)sulfonyl]-N-[(5-methylpyridin-2-yl)methyl]-4-phenylpyrrolidin-3-amine], the Ki is ≤ 1000 nM.

Take `O=c1[nH]c2ccc(S(=O)(=O)N3CC(Nc4ccc(F)c(F)c4)C(c4ccccc4)C3)cc2[nH]1` (stereo not drawn) [Example 506, 5-({3-[(3,4-difluorophenyl)amino]-4-phenylpyrrolidin-1-yl}sulfonyl)-1,3-dihydro-2H-benzimidazol-2-one]: the Ki is ≤ 10000 nM.

For `Cn1cnc(S(=O)(=O)N2C[C@H](Nc3ccc(C#N)c(C(F)(F)F)c3)[C@@H](c3ccc(F)cc3)C2)c1` [Example 639, 4-({(3R,4S)-4-(4-fluorophenyl)-1-[(1-methyl-1H-imidazol-4-yl)sulfonyl]pyrrolidin-3-yl}amino)-2-(trifluoromethyl)benzonitrile], the Ki was ≤ 10000 nM. Turning to `Cn1cnc(S(=O)(=O)N2C[C@H](NCc3sc(Cl)nc3Cl)[C@@H](c3ccccc3)C2)c1` [Example 435, (3R,4S)-N-[(2,4-dichloro-1,3-thiazol-5-yl)methyl]-1-[(1-methyl-1H-imidazol-4-yl)sulfonyl]-4-phenylpyrrolidin-3-amine], the Ki was ≤ 100 nM.

Take `Cn1cnc(S(=O)(=O)N2C[C@@H](Nc3ccc(Cl)cc3)[C@H](c3ccccc3F)C2)c1` (relative stereo) [Example 202, trans-N-(4-chlorophenyl)-4-(2-fluorophenyl)-1-[(1-methyl-1H-imidazol-4-yl)sulfonyl]pyrrolidin-3-amine]: the Ki is ≤ 1000 nM.

On to `Cn1cnc(S(=O)(=O)N2C[C@H](NCc3cc(Cl)sc3Cl)[C@@H](c3ccccc3)C2)c1` [Example 570, (3R,4S)-N-[(2,5-dichlorothiophen-3-yl)methyl]-1-[(1-methyl-1H-imidazol-4-yl)sulfonyl]-4-phenylpyrrolidin-3-amine], for which the Ki was ≤ 10 nM. On the same count and under the same terms, as for `CC1=C(CCN[C@H]2CN(S(=O)(=O)c3cn(C)cn3)C[C@@H]2c2ccccc2)C(C)(C)CCC1` [Example 458, (3R,4S)-1-[(1-methyl-1H-imidazol-4-yl)sulfonyl]-4-phenyl-N-[2-(2,6,6-trimethylcyclohex-1-en-1-yl)ethyl]pyrrolidin-3-amine], the figure is ≤ 10000 nM; as for `Cn1cnc(S(=O)(=O)N2C[C@@H](C(=O)Nc3cccc(C#N)c3)[C@H](c3ccc(F)cc3)C2)c1` (relative stereo) [Example 347, Trans-N-(3-cyanophenyl)-4-(4-fluorophenyl)-1-[(1-methyl-1H-imidazol-4-yl)sulfonyl]pyrrolidine-3-carboxamide], ≤ 10000 nM; as for `Cn1cnc(S(=O)(=O)N2C[C@@H](NCc3ccc(C(F)(F)F)cc3)[C@H](c3ccc(F)cc3)C2)c1` (relative stereo) [Example 267, trans-4-(4-fluorophenyl)-1-[(1-methyl-1H-imidazol-4-yl)sulfonyl]-N-[4-(trifluoromethyl)benzyl]pyrrolidin-3-amine], ≤ 10 nM.

In the case of `O=S(=O)(c1c(Cl)nc2sccn12)N1CC(Nc2ccc(F)c(F)c2)C(c2ccccc2)C1` (stereo not drawn) [Example 520, 1-[(6-chloroimidazo[2,1-b][1,3]thiazol-5-yl)sulfonyl]-N-(3,4-difluorophenyl)-4-phenylpyrrolidin-3-amine], the Ki was ≤ 10000 nM.

Still in this experiment, the particulars now being: radioligand binding, recombinant CHO cell membranes expressing human GlyT1c.
Regarding `Cn1cc(S(=O)(=O)N2C[C@@H](NCc3ccc(C(F)(F)F)cc3Cl)[C@H](c3ncccc3F)C2)nn1` (relative stereo) [Example 818, Trans-N-[2-chloro-4-(trifluoromethyl)benzyl]-4-(3-fluoropyridin-2-yl)-1-[(1-methyl-1H-1,2,3-triazol-4-yl)sulfonyl]pyrrolidin-3-amine], the Ki was ≤ 10 nM.

For `Cc1cc(N[C@@H]2CN(S(=O)(=O)c3cn(C)cn3)C[C@H]2C2CCCO2)ccc1F` (relative stereo) [Example 845, Trans-N-(4-fluoro-3-methylphenyl)-1-[(1-methyl-1H-imidazol-4-yl)sulfonyl]-4-(tetrahydrofuran-2-yl)pyrrolidin-3-amine], the Ki is ≤ 1000 nM.
